Test results as given in US5686458A, “Quinazoline deriviates for treating peptic ulcer” (Yuhan Corporation, priority 1992, dated 1997).

What was measured:
[1] = system: gastric secretion stimulated by histamine; experiment: Anti-secretory effects when gastric secretion is stimulated by histamine (Experiment 3-1); assay type: in vivo, Sprague-Dawley male rats; details: intravenous
Protocol: In accordance with the method [see Ghosh and Shild, et al., British Journal of pharmacology 13:54-61 (1958)], anti-secretory effects of the test substances were studied in this Experiment. Sprague-Dawley male rats having a body weight of 200±20 g were divided into 3 groups, Group 1 to be administered with the compound of Example 34, Group 2 to be administered with SK&F96067[see Keeling, D. […] The rats of each Group, deprived of food for 24 hours before the experiment with free access to water, were anesthetized by intraperitoneally administering of 1.5 g/kg of 20% aqueous urethane solution and positioned on the test plate which was heated and maintained at 37° C. The anesthetized rats were cannulated at the right jugular vein for the administration of the test compounds and the left jugular vein for the administration of stimulating substances. After an abdominal incision, tubes were inserted into the esophagus and duodenum, each of which was connected with saline in a thermostat and a fraction collector. […] To the left jugular vein, histamine was administered as a gastric secretion stimulator. […] The gastric secretion inhibition (%) of the test compounds was calculated from the following equation: The gastric secretion inhibition (%) of the test compounds =(A-C)/(A-B)×100 . . . (IV) in which […]

[2] = system: gastric secretion stimulated by pentagastrin; experiment: Inhibition of gastric secretion stimulated by pentagastrin (Experiment 3-2); assay type: in vivo, Sprague-Dawley male rats; details: intravenous
[3] = target: T1, H^+ /K^+ ATPase (proton pump), gastric vesicles (Sus scrofa, UniProt P19156); experiment: Determination of H+/K+ ATPase activity, Lineweaver-Burk kinetics versus K+ (Experiment 4-2); assay type: biochemical, pig
T1 construct: Gastric vesicles were prepared from pig stomach; from tissue; host or cells: pig stomach, lyophilized gastric vesicles
T1 sequence (P19156 2-1034 limits assumed): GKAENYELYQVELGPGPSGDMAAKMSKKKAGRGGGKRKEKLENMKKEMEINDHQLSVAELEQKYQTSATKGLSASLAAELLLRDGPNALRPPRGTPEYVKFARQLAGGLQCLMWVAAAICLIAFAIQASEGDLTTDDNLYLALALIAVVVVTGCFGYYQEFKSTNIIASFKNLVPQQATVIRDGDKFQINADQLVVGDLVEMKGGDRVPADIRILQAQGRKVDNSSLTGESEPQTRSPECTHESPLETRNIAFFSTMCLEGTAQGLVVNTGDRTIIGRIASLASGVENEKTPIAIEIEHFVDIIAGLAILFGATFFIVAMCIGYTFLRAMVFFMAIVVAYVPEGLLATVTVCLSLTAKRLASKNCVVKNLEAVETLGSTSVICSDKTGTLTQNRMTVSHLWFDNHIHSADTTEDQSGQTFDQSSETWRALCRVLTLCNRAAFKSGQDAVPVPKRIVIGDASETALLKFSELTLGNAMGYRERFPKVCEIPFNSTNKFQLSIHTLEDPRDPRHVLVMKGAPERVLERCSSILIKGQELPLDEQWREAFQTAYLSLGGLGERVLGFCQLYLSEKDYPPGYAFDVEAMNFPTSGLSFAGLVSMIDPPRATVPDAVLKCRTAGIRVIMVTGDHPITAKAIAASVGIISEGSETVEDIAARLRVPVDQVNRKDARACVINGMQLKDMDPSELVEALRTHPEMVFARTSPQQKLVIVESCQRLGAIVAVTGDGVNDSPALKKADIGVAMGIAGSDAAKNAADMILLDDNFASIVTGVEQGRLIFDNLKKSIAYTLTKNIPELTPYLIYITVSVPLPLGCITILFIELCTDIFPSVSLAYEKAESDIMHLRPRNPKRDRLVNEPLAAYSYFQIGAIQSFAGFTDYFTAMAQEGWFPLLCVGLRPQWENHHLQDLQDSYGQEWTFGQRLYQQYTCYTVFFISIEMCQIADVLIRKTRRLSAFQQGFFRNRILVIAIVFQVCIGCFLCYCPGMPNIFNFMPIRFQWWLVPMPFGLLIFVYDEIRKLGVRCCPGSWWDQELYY
T1 sequence (P18434 whole entry partner): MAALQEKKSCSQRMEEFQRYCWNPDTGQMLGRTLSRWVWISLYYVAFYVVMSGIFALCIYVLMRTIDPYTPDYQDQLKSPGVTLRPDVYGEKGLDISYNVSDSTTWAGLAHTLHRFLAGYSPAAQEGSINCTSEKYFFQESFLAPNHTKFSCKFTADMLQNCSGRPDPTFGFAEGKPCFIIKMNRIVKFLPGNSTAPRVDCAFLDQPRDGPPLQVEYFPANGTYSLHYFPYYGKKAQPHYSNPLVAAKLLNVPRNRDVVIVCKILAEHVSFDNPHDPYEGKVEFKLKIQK
Protocol: Gastric vesicles were prepared from pig stomach by the method described in Saccomani G., et al., J. Biol. Chem. 250, 4802-4809 (1975). The vesicles were lyophilized and kept at -70° C. The protein content was determined by the method of Lowry et al., using bovine serum albumin as standard[see Lowry, O. H., Rosebrough, N. J. and Randall, R. J., J. Biol. Chem. 193, 265-275 (1951)].
Test tubes were divided into 4 groups, each having 3 test tubes. As a control group, group 1 was added with the 10 μl of DMSO. Groups 2, 3 and 4 were administered with the compound prepared in example 34 whose final concentration are 0.17 μM, 0.33 μM and 0.67 μM, respectively. Each group was further divided into 3 small groups, in which enzymes were activated by ATP; ATP and Mg^++; and ATP, Mg^++ and K^+, respectively.
To all of the test tubes, were added 100 μl of lyophilized vesicles prepared at the concentration of 25 μg protein/ml and then 90 μl of 5 mM Pipes/Tris buffer pH 7.0. The compound prepared in Example 34 was added to each Group until the final concentration thereof became 0.17, 0.33 or 0.67 μM, respectively, They were preincubated for 15 minutes.
50 μl of ATP(3 mM) was added to each of the four Groups and the 50 μl of MgCl2 (2 mM) was added only to the 2nd and 3rd small groups of all Groups. Further, to the 3rd small groups of all Groups, were added 50 μl of KCl solution of various concentrations(from 0.1 mM to 30 mM) and then 150μl of Pipes/Tris buffer of pH 7.0. To the rest small groups, Pipes/Tris buffer of pH 7.0 was added until the volume became the same as that of the 3rd small group.
The test tube's were incubated at 37° C. for 30 minutes and then the reaction was terminated by adding 25% cold trichloroacetic acid solution. They were centrifuged by means of a microcentrifuge and the supernatant was taken up for the measurement of the released inorganic phosphate content by an automatic analyzer(CIBA CORNING, Express 550).
In accordance with the same procedures as above, except that 15 and 30 μm of omeprazole and 0.75, 1.5 and 3.0 μm of SK&F96067 were used as comparative substances, released inorganic phosphate content was measured.
The released inorganic phosphate contents of the three small groups were considered as the activity of H^+ /K^+ ATPase at each of the concentrations employed. The specific activity of H^+ /K^+ ATPase was calculated from the following equation:
Specific activity=(A-C)-(B-C) . . . (V)
A is the activity of enzyme activated by ATP, Mg^++ and , K^+ ;
B is the activity of enzyme activated by ATP and M^++ and
C is the activity of enzyme activated by ATP.
The specific activity, thus calculated, of Groups 1, 2, 3 and 4 which employed DMSO and the compound of Example 34 at 3 different concentrations were then plotted with respect to the concentration of KCl in FIG. 1 according to the method of Lineweaver-Burk, wherein .box-solid., .quadrature. and .largecircle. represent the respective concentrations of the compound of Example 34 of 0.67 μM, 0.33 μM and 0.17 μM; and .oval-solid. represents concentration of the DMSO compound. FIG. 2 depicts the Lineweaver-Burk plot of the specific activities obtained from SK&F96067, wherein .box-solid., .quadrature. and .largecircle. represent its respective concentrations of 3.0 μM, 1.5 μM, 0.75 μM; and .oval-solid. represents concentration of the DMSO compound. FIG. 3 illustrates the Lineweaver-Burk plot of the specific activities obtained from omeprazole, wherein .oval-solid. and .quadrature. represent its concentrations of 15 μM and 30 μM; and .largecircle. represents the concentration of DMSO.

[4] = target: T2, H^+ /K^+ ATPase, gastric vesicles (Sus scrofa, UniProt P19156); experiment: Reversibility of inhibition, Dilution and Washout method (Experiment 4-3); assay type: biochemical, pig
T2 construct: Gastric vesicles were prepared from pig stomach; from tissue; host or cells: pig stomach, lyophilized gastric vesicles
T2 sequence (P19156 2-1034 limits assumed): as the sequence (P19156 2-1034 limits assumed) above
T2 sequence (P18434 whole entry partner): as the sequence (P18434 whole entry partner) above
Protocol: The vesicles were lyophilized and kept at -70° C.
To all […] groups, was added 100 μl of lyophilized vesicles prepared in Experiment 4-1 at the concentration of 100 μg protein 1 ml. Then, 5 mM Pipes/Tris buffer(pH 6.4 ) was added to the three groups until the volume of test tubes became 150 μl. After the preincubation for 15 minutes, H^+ /K^+ ATPase activity was measured in accordance with the same procedures as in Experiment 4-2. The concentrations of the test substances as indicated above are the final concentrations.
After the completion of preincubation, each group was diluted 50 times with 5 mM Pipes/Tris buffer(pH 6.4), and then centrifuged for 60 minutes by means of Beckman ultracentrifuge(Model L8-80). The supernatant was discarded and the pellet was suspended with 5 mM Pipes/Tris buffer pH 6.4 until the volume became the same as the preincubation volume.

Competitive inhibition with K+ at the K+ binding site of proton pump ([3]; Lineweaver-Burk plot, KCl 0.1 to 30 mM): inhibited competitively with K^+
Ki ([3]; Lineweaver-Burk, versus K+, pH 7.0): 700 nM
Reversibility of the inhibition of the enzyme activity ([4]; conclusion from Table 4): reversible
Inhibition of H+/K+ ATPase activity before Dilution and Washout ([4]; pH 6.4, Example 34 at 6 μM, omeprazole and SK&F96067 at 60 μM): 80%
Compound: CCCC(=O)c1cnc2c(OC)cccc2c1Nc1ccccc1C [SK&F96067]
The gastric secretion inhibition (%) ([1]; 0.5 mg/kg): 29.8%
The gastric secretion inhibition (%) ([1]; 1.0 mg/kg): 57.1%
The gastric secretion inhibition (%) ([1]; 3.0 mg/kg): 75.9%
ED50 ([1]; Rattus norvegicus, read-out: ED50, gastric secretion inhibition): 0.96 mg/kg
The gastric secretion inhibition ([2]; 1.0 mg/kg): 32.6%
The gastric secretion inhibition ([2]; 3.0 mg/kg): 64.0%
The gastric secretion inhibition ([2]; 5.0 mg/kg): 77.3%
ED50 ([2]; Rattus norvegicus): 1.85 mg/kg
